Data reported in patent US10441568B2, “Nitroxide radicals for the treatment of diseases of the respiratory tract” (priority 2015, dated 2019).

Experiments:
[1] = test system: bleomycin-induced pulmonary fibrosis; test: Lung resistance in bleomycin pulmonary fibrosis model; format: in vivo, mice; details: 3-CP 150 mg/kg daily intranasal, 14 days, 64 mg/ml methacholine, FIG. 17
Protocol: One day after the final challenge, respiratory activity and airway hyper-responsiveness (AHR) of experimental animals were evaluated. Whole body plethysmographs for enhanced pause (Penh) measurements are often used for assessment of AHR. However, critics have questioned the validity of Penh measurements, which supposedly measure airway obstruction of live non-sedated mice, stating that it is likely to measure the distress of the animal rather than actual obstruction. […] In brief, mice were sedated with an intraperitoneal (IP) injection of xylazine hydrochloride and anaesthetized with IP injection of pentobarbital. Subsequently, the animals were tracheostomized using an 18 gauge cannula, ventilated with a FlexiVent™ apparatus (SCIREQ), and muscle paralysis was induced with pancuronium bromide. The mice were ventilated in a quasi-sinusoidal fashion with the following settings: a tidal volume of 10 ml/kg, maximum inflation pressure of […] (30 cm H2O), a positive end expiratory pressure (PEEP) of 3 millibar and a frequency of 150 per minute. […] Airway hyper-responsiveness (AHR) was determined by aerosolizing increasing concentrations of methacholine. […]
(§1) The effect of 3-CP on bleomycin-induced inflammation was evaluated by determining lung resistance, total inflammatory cell count, and TGF-β1 levels, according to procedures described hereinabove.

[2] = test system: TGF-β1; test: TGF-β1 level in bleomycin pulmonary fibrosis model; format: in vivo, mice; details: 3-CP 150 mg/kg daily intranasal, 14 days, FIG. 19
Protocol: Bronchoalveolar lavage (BAL) fluid (also referred to herein as “BALf”) and bronchial submucosal inflammation are characteristic features of asthma. Mice were euthanized with an overdose of 50 mg/kg pentobarbital and ice-cold phosphate buffer saline (PBS) (0.6 ml) was instilled into the lungs. BAL fluid was obtained by three aspirations via tracheal cannulation, centrifuged, and the supernatant collected and stored at −70° C. Cell pellets were re-suspended in PBS and 100 μl aliquots placed onto slides and centrifuged (200 g, 4° C., 10 minutes) in a cytospin machine. Induction of oxidative stress was evaluated using a 2′,7′-dichlorofluorescein fluorescence assay, and total IgE, IgG2a, panel of cytokines, transforming growth factors, collagen, protein nitration and lipid peroxidation were measured using commercial kits according to the manufacturer's recommendations. A Sircol™ collagen assay kit was obtained from Biocolor Life Sciences Assays, a protein nitration assay kit was obtained from Abcam, and other assay kits were obtained from PeproTech Asia. […]
as §1

[3] = test system: ovalbumin-induced murine model of asthma; test: Lung resistance / airway hyper-responsiveness to methacholine in OVA asthma model; format: in vivo, BALB/c mice
Protocol: All experimental procedures were carried out in accordance with the NIH Guidelines for the Care and Use of Laboratory Animals. Specific pathogen-free (SPF) male BALB/c mice (6-7 weeks of age, 18-22 grams), routinely screened serologically for relevant respiratory pathogens, were maintained in an animal housing facility for 1 week before use and given access to food and water ad libitum. Animals were randomly assigned to the indicated experimental groups, and sensitized with two intraperitoneal (IP) injections (20 μg ovalbumin (OVA) emulsified in 2 mg aluminum hydroxide (an adjuvant) in 200 μl phosphate buffer saline (PBS), pH 7.4), on days 1 and 10.
After another week, the animals were challenged by exposure to ovalbumin (OVA) aerosol (1%, w/v, in PBS) for 30 minutes each day on days 17, 18 and 19, in order to elicit an inflammatory reaction in the lungs characterized by airway hyper-responsiveness (AHR), an influx of inflammatory cells (particularly eosinophils), and increased pulmonary levels of various cytokines and transforming growth factors, protein nitration and lipid peroxidation.
The features of allergic inflammation typically reached their peak a day or two after the final exposure. Mice were then subjected to one of the following treatments: (i) sham-sensitization plus challenge with PBS; (ii) positive control-sensitization plus challenge with OVA; (iii) sensitization plus challenge with OVA and various indicated treatments (e.g., with nitroxide or dexamethasone), including different modes (oral, IP, intranasal, inhalation), time windows (sensitization stage, challenge stage, both stages and after the last challenge), and doses of nitroxide administration.
One day after the final challenge, respiratory activity and airway hyper-responsiveness (AHR) of experimental animals were evaluated. Whole body plethysmographs for enhanced pause (Penh) measurements are often used for assessment of AHR. However, critics have questioned the validity of Penh measurements, which supposedly measure airway obstruction of live non-sedated mice, stating that it is likely to measure the distress of the animal rather than actual obstruction. […] In brief, mice were sedated with an intraperitoneal (IP) injection of xylazine hydrochloride and anaesthetized with IP injection of pentobarbital. Subsequently, the animals were tracheostomized using an 18 gauge cannula, ventilated with a FlexiVent™ apparatus (SCIREQ), and muscle paralysis was induced with pancuronium bromide. The mice were ventilated in a quasi-sinusoidal fashion with the following settings: a tidal volume of 10 ml/kg, maximum inflation pressure of […] (30 cm H2O), a positive end expiratory pressure (PEEP) of 3 millibar and a frequency of 150 per minute. Following an equilibration period of 3 minutes of tidal ventilation, two lung inflations to a transrespiratory pressure of 2.5 millibar were performed and baseline measurements were taken. Airway hyper-responsiveness (AHR) was determined by aerosolizing increasing concentrations of methacholine. After baseline determination of airway resistance, mice were challenged with 0 to 64 mg/mL methacholine nebulized directly into the ventilatory circuit using an AeroNeb™ Lab nebulizer system (SCIREQ). Two models of respiratory mechanics were used to assess lung resistance: a linear 1st-order single compartment model and a constant-phase model. All data points were collected with FlexiVent™ software (SCIREQ). […]

[4] = oral, 1 weight percent in chow, FIG. 3

CC1(C)CC(C(N)=O)C(C)(C)N1[O] (centres unmarked) [3-CP, 3-Carbamoyl-2,2,5,5-tetramethyl-pyrrolidin-1-oxyl]
effect on bleomycin-induced increase in lung resistance [1]: completely reversed | effect on bleomycin-induced increase in TGF-β1 expression in lungs [2]: significantly reduced | lung resistance, oral 3-CP in both periods compared with other regimens ([3]; oral 1 weight percent in chow during sensitization and challenge periods, FIG. 6): more effective than IP injection or intranasal instillation of 3-CP, oral administration of 3-CP during the sensitization period or challenge period alone, or treatment with dexamethasone | effect on methacholine-induced increase in lung resistance [3, 4]: suppressed methacholine-induced increase in lung resistance | lung resistance suppression, 3-CP compared with TPL [3, 4]: considerably more effective than TPL
